Measured values taken from PubChem BioAssay (NCI).
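Values below derive from 48-hour exposures of cells grown in 96-well plates, with endpoints linearly interpolated between the two concentrations bracketing the appropriate inhibition level. GI50: concentration for 50% inhibition of growth. TGI marks complete inhibition of growth.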

Columns and labels:
Assay in all cases: growth of human tumour cells (NCI), 48 h
SF-268 CNS = tested on: SF-268 CNS
OVCAR-5 ovarian = tested on: OVCAR-5 ovarian
HOP-62 NSCLC = tested on: HOP-62 NSCLC
M14 melanoma = tested on: M14 melanoma
HCT-15 colon = tested on: HCT-15 colon
HOP-92 NSCLC = tested on: HOP-92 NSCLC
UACC-62 melanoma = tested on: UACC-62 melanoma
U251 CNS = tested on: U251 CNS
SF-295 CNS = tested on: SF-295 CNS
OVCAR-8 ovarian = tested on: OVCAR-8 ovarian
UO-31 renal = tested on: UO-31 renal
PC-3 prostate = tested on: PC-3 prostate
LOX IMVI melanoma = tested on: LOX IMVI melanoma
SW-620 colon = tested on: SW-620 colon
CCRF-CEM leukemia = tested on: CCRF-CEM leukemia
SNB-75 CNS = tested on: SNB-75 CNS
ACHN renal = tested on: ACHN renal
RPMI-8226 leukemia = tested on: RPMI-8226 leukemia
MALME-3M melanoma = tested on: MALME-3M melanoma
BT-549 breast = tested on: BT-549 breast
HCC-2998 colon = tested on: HCC-2998 colon
NCI-H226 lung = tested on: NCI-H226 lung
DU-145 prostate = tested on: DU-145 prostate
NCI/ADR-RES ovarian = tested on: NCI/ADR-RES ovarian
MOLT-4 leukemia = tested on: MOLT-4 leukemia
T-47D breast = tested on: T-47D breast
HT29 colon = tested on: HT29 colon
NCI-H460 lung = tested on: NCI-H460 lung
A549 NSCLC = tested on: A549 NSCLC
CAKI-1 renal = tested on: CAKI-1 renal
SK-OV-3 ovarian = tested on: SK-OV-3 ovarian
SK-MEL-28 melanoma = tested on: SK-MEL-28 melanoma
NCI-H522 lung = tested on: NCI-H522 lung
EKVX NSCLC = tested on: EKVX NSCLC
SF-539 CNS = tested on: SF-539 CNS
SK-MEL-5 melanoma = tested on: SK-MEL-5 melanoma
HL-60(TB) leukemia = tested on: HL-60(TB) leukemia
MDA-MB-435 = tested on: MDA-MB-435
SN12C renal = tested on: SN12C renal
RXF 393 renal = tested on: RXF 393 renal
UACC-257 melanoma = tested on: UACC-257 melanoma
HS 578T breast = tested on: HS 578T breast
TK-10 renal = tested on: TK-10 renal
COLO 205 colon = tested on: COLO 205 colon
SR leukemia = tested on: SR leukemia
SNB-19 CNS = tested on: SNB-19 CNS
IGROV1 ovarian = tested on: IGROV1 ovarian
MDA-MB-231 breast = tested on: MDA-MB-231 breast
K-562 leukemia = tested on: K-562 leukemia
MCF7 breast = tested on: MCF7 breast
NCI-H23 lung = tested on: NCI-H23 lung
HCT-116 colon = tested on: HCT-116 colon
KM12 colon = tested on: KM12 colon
786-0 renal = tested on: 786-0 renal
OVCAR-4 ovarian = tested on: OVCAR-4 ovarian
SK-MEL-2 melanoma = tested on: SK-MEL-2 melanoma

COc1ccc(C2CC(c3ccc(OC)c(OC)c3)=NN2C(=O)c2cc(OC)c(OC)c(OC)c2)cc1 (stereo not given) gave a GI50 (SF-268 CNS) of 5.06 µM, a TGI (SF-268 CNS) greater than 100 µM and a GI50 (OVCAR-5 ovarian) of 9.26 µM. The TGI (OVCAR-5 ovarian) was greater than 100 µM, the GI50 (HOP-62 NSCLC) was 1.78 µM and the TGI (HOP-62 NSCLC) was greater than 100 µM. For the same compound, the GI50 (M14 melanoma) was 1.95 µM, the TGI (M14 melanoma) was greater than 100 µM and the GI50 (HCT-15 colon) was 1.76 µM. It also gave a TGI (HCT-15 colon) greater than 100 µM, a GI50 (HOP-92 NSCLC) of 0.168 µM and a TGI (HOP-92 NSCLC) of 0.841 µM. The GI50 (UACC-62 melanoma) was 1.39 µM, the TGI (UACC-62 melanoma) was greater than 100 µM and the GI50 (U251 CNS) was 2.53 µM. It also gave a TGI (U251 CNS) greater than 100 µM, a GI50 (SF-295 CNS) of 0.426 µM and a GI50 (OVCAR-8 ovarian) of 3.96 µM. For the same compound, the TGI (OVCAR-8 ovarian) was greater than 100 µM, the GI50 (UO-31 renal) was 0.864 µM and the TGI (UO-31 renal) was greater than 100 µM. The GI50 (PC-3 prostate) was 3.57 µM, the TGI (PC-3 prostate) was greater than 100 µM and the GI50 (LOX IMVI melanoma) was 2.47 µM. It also gave a TGI (LOX IMVI melanoma) greater than 100 µM, a GI50 (SW-620 colon) of 3.7 µM and a TGI (SW-620 colon) greater than 100 µM. The GI50 (CCRF-CEM leukemia) was 4.29 µM, the TGI (CCRF-CEM leukemia) was greater than 100 µM and the GI50 (SNB-75 CNS) was 2.08 µM. It also gave a TGI (SNB-75 CNS) greater than 100 µM, a GI50 (ACHN renal) of 2.41 µM and a TGI (ACHN renal) greater than 100 µM. The GI50 (RPMI-8226 leukemia) was 4.27 µM, the TGI (RPMI-8226 leukemia) was greater than 100 µM and the GI50 (MALME-3M melanoma) was greater than 91.3 µM. For the same compound, the TGI (MALME-3M melanoma) was greater than 100 µM, the GI50 (BT-549 breast) was 3.96 µM and the TGI (BT-549 breast) was greater than 46.7 µM. For the same compound, the GI50 (HCC-2998 colon) was 1.85 µM, the TGI (HCC-2998 colon) was 4.77 µM and the GI50 (NCI-H226 lung) was 3.06 µM. It also gave a TGI (NCI-H226 lung) greater than 100 µM, a GI50 (DU-145 prostate) of 3.79 µM and a TGI (DU-145 prostate) greater than 100 µM. The GI50 (NCI/ADR-RES ovarian) was 0.95 µM, the TGI (NCI/ADR-RES ovarian) was 6.02 µM and the GI50 (MOLT-4 leukemia) was 7.36 µM. It also gave a TGI (MOLT-4 leukemia) greater than 100 µM, a GI50 (T-47D breast) of 2.3 µM and a TGI (T-47D breast) greater than 100 µM. For the same compound, the GI50 (HT29 colon) was 3.07 µM, the TGI (HT29 colon) was greater than 100 µM and the GI50 (NCI-H460 lung) was 3.54 µM. For the same compound, the TGI (NCI-H460 lung) was greater than 100 µM, the GI50 (A549 NSCLC) was 2.88 µM and the TGI (A549 NSCLC) was greater than 100 µM. It also gave a GI50 (CAKI-1 renal) of 0.473 µM, a TGI (CAKI-1 renal) greater than 24.9 µM and a GI50 (SK-OV-3 ovarian) of 1.76 µM. For the same compound, the TGI (SK-OV-3 ovarian) was greater than 100 µM, the GI50 (SK-MEL-28 melanoma) was 68.5 µM and the TGI (SK-MEL-28 melanoma) was greater than 100 µM. For the same compound, the GI50 (NCI-H522 lung) was 0.56 µM, the GI50 (EKVX NSCLC) was 5.25 µM and the TGI (EKVX NSCLC) was greater than 100 µM. The GI50 (SF-539 CNS) was 1.36 µM, the TGI (SF-539 CNS) was greater than 21.7 µM and the GI50 (SK-MEL-5 melanoma) was 0.558 µM. It also gave a TGI (SK-MEL-5 melanoma) of 4.83 µM, a GI50 (HL-60(TB) leukemia) of 2.4 µM and a TGI (HL-60(TB) leukemia) greater than 32 µM. It also gave a GI50 (MDA-MB-435) of 0.409 µM, a TGI (MDA-MB-435) of 2.02 µM and a GI50 (SN12C renal) of 5.71 µM. It also gave a TGI (SN12C renal) greater than 100 µM, a GI50 (RXF 393 renal) of 0.344 µM and a TGI (RXF 393 renal) of 3.05 µM. The GI50 (UACC-257 melanoma) was greater than 31.5 µM, the TGI (UACC-257 melanoma) was greater than 100 µM and the GI50 (HS 578T breast) was 2.07 µM. The TGI (HS 578T breast) was greater than 100 µM, the GI50 (TK-10 renal) was 5.26 µM and the TGI (TK-10 renal) was greater than 100 µM. For the same compound, the GI50 (COLO 205 colon) was 2.81 µM, the TGI (COLO 205 colon) was greater than 28 µM and the GI50 (SR leukemia) was 2.07 µM. The TGI (SR leukemia) was greater than 100 µM, the GI50 (SNB-19 CNS) was 4.67 µM and the TGI (SNB-19 CNS) was greater than 100 µM. It also gave a GI50 (IGROV1 ovarian) of 3.32 µM, a TGI (IGROV1 ovarian) greater than 100 µM and a GI50 (MDA-MB-231 breast) of 3.09 µM. The TGI (MDA-MB-231 breast) was greater than 100 µM, the GI50 (K-562 leukemia) was 1.2 µM and the TGI (K-562 leukemia) was greater than 100 µM. It also gave a GI50 (MCF7 breast) of 0.647 µM, a TGI (MCF7 breast) greater than 100 µM and a GI50 (NCI-H23 lung) of 3.46 µM. For the same compound, the TGI (NCI-H23 lung) was greater than 100 µM, the GI50 (HCT-116 colon) was 2.23 µM and the TGI (HCT-116 colon) was greater than 100 µM. For the same compound, the GI50 (KM12 colon) was 2.31 µM, the TGI (KM12 colon) was greater than 63.1 µM and the GI50 (786-0 renal) was 2.71 µM. For the same compound, the TGI (786-0 renal) was greater than 100 µM, the GI50 (OVCAR-4 ovarian) was greater than 23.8 µM and the TGI (OVCAR-4 ovarian) was greater than 100 µM. The GI50 (SK-MEL-2 melanoma) was 3.87 µM and the TGI (SK-MEL-2 melanoma) was greater than 100 µM.
